The values below come from patent US20240254140A1, “COMPOUNDS AND THEIR USE IN THE TREATMENT OF BACTERIAL INFECTION” (Hoffmann-La Roche Inc., priority 2021, published 2024).

The MIC is the lowest concentration found to suppress growth. Lower therefore signals a more susceptible organism.

SMILES strings stand for the structures. In brackets after ≈: the same amount, converted by molar mass.

In the first assay the test system is Escherichia coli ATCC 25922. As to the kind of experiment: Minimal Inhibitory Concentration (MIC) determination, broth microdilution. It counts as cell-based. The settings on record: ATCC25922; strain Escherichia coli ATCC 25922; broth microdilution per CLSI M07-A10; 18-24 hours at 35±2° C.; lowest concentration for complete growth inhibition. As to the method: Minimal Inhibitory Concentration (MIC) Determination:
The MIC of antibacterial compounds against multiple species and strains was determined using the broth microdilution method according to M07-A10 Clinical and Laboratory Standards Institute (CLSI) guidelines, using the appropriate broth medium. In short, the compound plates were prepared by dispensing 100 μL of each stock solution in the first well of a 96 well microtiter plate (MTP) at a concentration 100-fold higher than the final concentration desired in broth. Eleven serial 2-fold dilutions of the highest concentration were made in DMSO for new compounds and in water (or appropriate solution) for reference compounds [2]. 1 μL of each well was transferred in a new MTP, which served as the test plate by subsequent inoculation. This bacterial suspension was prepared from strains that were first sub-cultured on agar plates and incubated for 18-24 hours as appropriate. Following incubation, the inoculum was prepared from isolated colonies and adjusted to 0.5 McFarland turbidity standard (1 to 2×10^8 Colony Forming Units (CFU)/mL) in 0.9% saline. The bacterial suspension was then diluted 1:200 in appropriate sterile medium and within 15 minutes 100 μL/well were dispensed. Negative controls (lack of bacterial cells) and growth control wells (lack of compound) were included in all plates. MTPs were incubated for 18-24 hours at 35±2° C. in ambient air. The MIC value of each compound, expressed as μg/mL, was determined as the lowest concentration required for complete growth inhibition (no visible growth). • [1] CLSI (2015) Methods for dilution antimicrobial susceptibility tests for bacteria that grow aerobically; Approved Standard, Tenth Edition. CLSI Document M7-A10 (ISBN 1-56238-987-4). Wayne, PA: Clinical and Laboratory Standards Institute, 19087, USA. • [2] CLSI (2017) Performance Standards for Antimicrobial Susceptibility Testing; Twenty-Fifth Informational Supplement. CLSI Document M100-S27, CLSI, Wayne, Pennsylvania 19087, USA.
Table 1 provides the Minimal Inhibitory Concentrations (MIC) in micrograms per millilitre of the compounds of present invention obtained against the strain Escherichia coli ATCC 25922.
Compound `N[C@]1(C(=O)Nc2cc(F)c3c(c2)CC(CNCCC2CN(c4cnc5c(n4)NC(=O)CO5)C(=O)O2)C3)CCOC1.O=C(O)C(F)(F)F` (stereo partly drawn) [Example 40, (3R)-3-amino-N-[7-fluoro-2-[[2-[2-oxo-3-(3-oxo-4H-pyrazino[2,3-b][1,4]oxazin-6-yl)oxazolidin-5-yl]ethylamino]methyl]indan-5-yl]tetrahydrofuran-3-carboxamide; 2,2,2-trifluoroacetic acid] returned an MIC of 0.25 µg/mL.

As for `CO[C@H]1CN[C@H](C(=O)Nc2cc(F)c3c(c2)CC(CNCCC2CN(c4cnc5c(n4)NC(=O)CO5)C(=O)O2)C3)C1` (stereo partly drawn) [Example 44, (2S,4R)-N-[7-fluoro-2-[[2-[2-oxo-3-(3-oxo-4H-pyrazino[2,3-b][1,4]oxazin-6-yl)oxazolidin-5-yl]ethylamino]methyl]indan-5-yl]-4-methoxy-pyrrolidine-2-carboxamide], the minimal inhibitory concentration (MIC) is 1 µg/mL (≈ 1.76 µM).

With `C[C@H](C(=O)Nc1cc(F)c2c(c1)CC(CN1CCC3(CC1)CN(c1cnc4c(n1)NC(=O)CO4)C(=O)O3)C2)N(C)C` (stereo partly drawn) [Example 7, (2R)-2-(dimethylamino)-N-[7-fluoro-2-[[2-oxo-3-(3-oxo-4H-pyrazino[2,3-b][1,4]oxazin-6-yl)-1-oxa-3,8-diazaspiro[4.5]decan-8-yl]methyl]indan-5-yl]propanamide], the MIC came out at 0.25 µg/mL (≈ 0.44 µM).

On to `C[C@H](C(=O)Nc1cc(C#N)c2c(c1)CC(O)(CN1CCC3(CC1)CN(c1cnc4c(n1)NC(=O)CO4)C(=O)O3)C2)N(C)C` (stereo partly drawn) [Example 35, (2R)-N-[7-cyano-2-hydroxy-2-[[2-oxo-3-(3-oxo-4H-pyrazino[2,3-b][1,4]oxazin-6-yl)-1-oxa-3,8-diazaspiro[4.5]decan-8-yl]methyl]indan-5-yl]-2-(dimethylamino)propanamide], for which the MIC is 1 µg/mL (≈ 1.69 µM).

In the case of `N[C@@H](CC(=O)O)C(=O)Nc1cc(F)c2c(c1)CC(CNCCC1CN(c3cnc4c(n3)NC(=O)CO4)C(=O)O1)C2.O=C(O)C(F)(F)F` (stereo partly drawn) [Example 48, (3S)-3-amino-4-[[7-fluoro-2-[[2-[2-oxo-3-(3-oxo-4H-pyrazino[2,3-b][1,4]oxazin-6-yl)oxazolidin-5-yl]ethylamino]methyl]indan-5-yl]amino]-4-oxo-butanoic acid; 2,2,2-trifluoroacetic acid], the minimal inhibitory concentration (MIC) came out at 4 µg/mL.

As to `CN(C)C1(C(=O)Nc2cc(F)c3c(c2)CC(CNCCC2CN(c4cnc5c(n4)NC(=O)CO5)C(=O)O2)C3)CC1` (stereo not shown) [Example 2], the MIC was 1 µg/mL (≈ 1.81 µM).

Take `O=C1COc2ncc(N3CC4(CCN(CC5Cc6cc(NC(=O)[C@@H]7C[C@@H](O)CN7)cc(F)c6C5)CC4)OC3=O)nc2N1` (stereo partly drawn) [Example 42, (2S,4R)—N-[7-fluoro-2-[[2-oxo-3-(3-oxo-4H-pyrazino[2,3-b][1,4]oxazin-6-yl)-1-oxa-3,8-diazaspiro[4.5]decan-8-yl]methyl]indan-5-yl]-4-hydroxy-pyrrolidine-2-carboxamide]: the MIC amounted to 0.125 µg/mL (≈ 0.215 µM).

Compound `O=C(O)C(F)(F)F.O=C1COc2ncc(N3CC4(CCN(CC5Cc6cc(NC(=O)[C@]7(CO)CCCN7)cc(F)c6C5)CC4)OC3=O)nc2N1` (stereo partly drawn) [Example 53, (2R)—N-[7-Fluoro-2-[[2-oxo-3-(3-oxo-4H-pyrazino[2,3-b][1,4]oxazin-6-yl)-1-oxa-3,8-diazaspiro[4.5]decan-8-yl]methyl]indan-5-yl]-2-(hydroxymethyl)pyrrolidine-2-carboxamide; 2,2,2-trifluoroacetic Acid] gave an MIC of 0.25 µg/mL.

Take `Cc1nc(NC(=O)[C@@H](C)N(C)C)cc2c1CC(CNCCC1CN(c3cnc4c(n3)NC(=O)CO4)C(=O)O1)C2` (stereo partly drawn) [Example 28, (2R)-2-(dimethylamino)-N-[1-methyl-6-[[2-[2-oxo-3-(3-oxo-4H-pyrazino[2,3-b][1,4]oxazin-6-yl)oxazolidin-5-yl]ethylamino]methyl]-6,7-dihydro-5H-cyclopenta[c]pyridin-3-yl]propanamide]: the MIC came to 0.5 µg/mL (≈ 0.928 µM).

The same assay, now with this note: strain Escherichia coli ATCC 25922; broth microdilution per CLSI M07-A10; 18-24 hours at 35±2° C.; lowest concentration for complete growth inhibition.
Regarding `C[C@H](C(=O)Nc1cc(F)c2c(c1)CC(CNCC[C@H]1CN(c3cnc4c(n3)NC(=O)CO4)C(=O)O1)C2)N(C)C` (single isomer, unassigned) [Example 69], the “Escherichia coli growth inhibition MIC” value amounted to 0.125 µg/mL.
